From patent US4851209A, “Diagnostic procedures using radio labeled sucralfate and derivatives or precursors thereof” (The Regents of the University of California, priority 1985, dated 1989)

Key:
[1] = stability of tagged material in solution; assay type: physicochemical; details: one gram per 10 cc of normal saline
Source text: The tagged material was stable in a solution comprising one gram per 10 cc of normal saline. The solution was given orally as a 10 cc dose. […] A good analogy would be the stars at night vs. the stars during the day. The stars are there in both instances. However, the sky is so bright during the day that star-light is simply lost in the background. […] The potassium salt used for imaging ulcers in Example III can be replaced by other cations compatible in the human body including alkali metal and alkaline earth metal cations such as sodium and calcium.

[2] = tested on: duodenal and gastric ulcers, gastric erosions, mucosa; details: cited from earlier work
duodenal ulcers = details: several clinical trials; cited from earlier work
pepsin = details: cited from earlier work

potassium sucrose sulfate [Tc-99m labeled potassium sucrose sulfate]
stability in solution [1]: stable

Sucralfate
binding to ulcerated areas in the upper G. I. tract ([2]; FDA approved drug): bind selectively to ulcerated areas
duration of action ([2]; animal data): sustained
binding to uninjured mucosa ([2]; compared with defective mucosa): to a much lesser extent
binding to duodenal and gastric ulcers and to gastric erosions ([2]; erosions produced by ethanol and anti-inflammatory drugs): binds to duodenal and gastric ulcers and to gastric erosions
safety and efficacy in healing duodenal ulcers (duodenal ulcers): shown the safety and efficacy
inhibition of the action of pepsin (pepsin): inhibits the action of pepsin
